≈ marks a conversion by molar mass, not a printed value. Read-outs that look alike come from different tables or passages of the source.
Experiments:
[1] = test system: housefly; experiment: Insecticidal activity against housefly (Filter paper bait and contact method); type: in vivo; details: Musca domestica
Description: Each 20 parts of the present compounds No. 1 to No. 29, 10 parts of an emulsifier (Sorpol 3005X; trademark for Toho Chemical Co.) and 70 parts of xylene are thoroughly mixed by stirring to obtain an emulsifiable concentrate of each compound.
A piece of filter paper, 5.5 cm in diameter, was laid on the bottom of a polyethylene cup of the identical inner diameter. An emulsifiable concentrate prepared in the same manner as in Preparation Example 2 was diluted with water. To the filter paper, was added dropwise 0.7 ml of the diluted sample (500 ppm in concentration). Sucrose (30 mg) was placed on the filter paper to serve as bait. Ten adult female houseflies were released into the cup, closed with a cover, and observed for the number of dead and alive insects after 48 hours to calculate the mortality (2 replications).

[2] = test system: housefly; experiment: Insecticidal activity against housefly (Topical application method); type: in vivo; details: dorsal thorax, adult female, 24 hours
Description: The present compounds and the reference compounds were diluted with acetone to prescribed concentrations. Each 0.5 μl of the diluted samples was applied topically with a microsyringe onto the dorsal thorax of an adult female housefly. The flies were fed and observed for the number of dead and alive insects after 24 hours. LD50 (median lethal dose) was calculated from the mortalities at each dosage by probit method.

[3] = test system: green rice leafhopper; experiment: Insecticidal activity against green rice leafhopper; details: Nephotettix cincticeps, 24 h
[4] = test system: tobacco cutworm; experiment: Insecticidal activity against tobacco cutworm; type: in vivo; details: 24 h
Description: An artificial diet (15 g) for tobacco cutworm was wet with 2 ml of the prescribed aqueous dilution of an emulsifiable concentrate obtained in Preparation Example 2 or of that obtained from reference compounds. The diet thus treated was placed in a polyethylene cup of 11 cm in diameter.

[5] = test system: housefly; experiment: Activity of oil spray against adult housefly (glass chamber); type: in vivo; details: oil spray 0.5 ml, 10 minutes exposure
Description: (§1) 0.1 Part of each compound Nos. 10, 12, 15, 17, 18, 19, 22, 23 and 29 of this invention is dissolved in deodorized kerosene and made up to 100 parts with kerosene to obtain an oil spray.
(§2) Ten adult houseflies and ten adult female northern house mosquitos were released in a glass chamber, 70×70×70 cm in size. An oil spray preparation (0.5 ml) obtained in Preparation Example 1 was sprayed inside the chamber and the insects were exposed to the descending mist for 10 minutes, during which time the number of knocked-down insects was counted at predetermined time intervals to determine the 50% knockdown time (KT50). On the following day, the dead and alive insects were observed.

[6] = test system: northern house mosquito; experiment: Activity of oil spray against adult female northern house mosquito (glass chamber); type: in vivo; details: oil spray 0.5 ml, 10 minutes exposure; for mortality, Northern house mosquito: observed on the following day, 1440 min
Description: as §1, §2

[7] = 500 ppm, 48 hours, adult female houseflies, read-out: Mortality
[8] = read-out: Percent mortality days after spraying: 0
[9] = read-out: Percent mortality days after spraying: 3
[10] = read-out: Percent mortality days after spraying: 7
[11] = read-out: LC50 (median lethal concentration), treated artificial diet, third-instar larvae, 24 hours

What does the source list for `CC1(C)C(C(=O)OC(C#N)c2cccc(Oc3ccccc3)c2)C12Cc1ccc(Br)cc1C2` (centres unmarked) [Compound 5]?
mortality at 500 ppm [1, 7]: 100%; LD50 (median lethal dose) [2]: 0.018 μg/female; mortality at 50 ppm [3, 8]: 100%; mortality at 50 ppm [3, 9]: 100%; mortality at 50 ppm [3, 10]: 100%; LC50 [4, 11]: 7.2 µg/mL (≈ 14.3 µM)

What does the source list for `CC1(C)C(C(=O)OC(C#N)c2cccc(Oc3ccccc3)c2)C12Cc1ccccc12` (centres unmarked) [Compound 19]?
KT50 (50% knockdown time), House fly [5]: 600 s; mortality, House fly ([5]; observed on the following day, 1440 min): 80%; KT50 (50% knockdown time), Northern house mosquito [6]: 492 s; mortality, Northern house mosquito [6]: 100%; mortality at 500 ppm ([1]; 48 h): 100%; LC50 ([4]; read-out: LC50 (median lethal concentration)): 5 µg/mL (≈ 12.2 µM)

Which mortality at 500 ppm [1, 7] does the source give for `CC1(C)C(C(=O)OCc2cccc(Oc3ccccc3)c2)C12Cc1ccccc1C2` (centres unmarked) [Compound 21] here?
The mortality at 500 ppm was 100%.

Which results are given for `CC1(C)C(C(=O)OCc2c(Cl)c(Cl)c(Cl)c(Cl)c2Cl)C12Cc1ccccc1C2` (centres unmarked) [Compound 28]?
mortality at 500 ppm [1, 7]: 100%; LC50 ([4]; treated artificial diet, third-instar larvae, 24 hours, read-out: LC50 (median lethal concentration)): 8.7 µg/mL (≈ 18.2 µM)

How did the mortality at 500 ppm [1, 7] turn out when `CC1(C)C(C(=O)OCC=C(Cl)Cc2ccccc2)C12Cc1ccccc1C2` (centres unmarked) [Compound 25] was run?
The mortality at 500 ppm was 100%.

What about the LC50 [4, 11] of the same molecule?
Its LC50 is 4 µg/mL (≈ 10.5 µM).

`CC1(C)C(C(=O)OCc2cccc(Cc3ccccc3)c2)C12Cc1ccccc1C2` (centres unmarked) [Compound 13] was tested. Which mortality at 500 ppm [1, 7] did it give?
The mortality at 500 ppm was 100%.

And the mortality at 50 ppm [3, 8]?
The mortality at 50 ppm was 100%.

And the mortality at 50 ppm [3, 9]?
Its mortality at 50 ppm is 93%.

And the mortality at 50 ppm [3, 10]?
The mortality at 50 ppm was 100%.

With `CC1(C)C(C(=O)OC(C#N)c2cccc(Oc3ccccc3)c2)C12C=Cc1ccccc12` (centres unmarked) [drawing 61, reference compound] as the molecule, how does the “LD50 (median lethal dose)” value [2] read?
The value was 0.16 μg/female.

Which “LD50 (median lethal dose)” value [2] does the source give for `CC(C)=CC1C(C(=O)OCc2cccc(Oc3ccccc3)c2)C1(C)C` (centres unmarked) [drawing 58, reference compound] here?
Its value is 0.26 μg/female.

`CC1(C)C(C(=O)OC(C#N)c2cccc(Oc3ccccc3)c2)C12Cc1cccc(F)c1C2` (centres unmarked) [Compound 6] was tested. Which mortality at 500 ppm [1, 7] did it give?
The mortality at 500 ppm was 100%.

`CNC(=O)Oc1cccc2ccccc12` [NAC, 1naphthyl N--methylcarbamate, reference compound] was tested. Which mortality at 250 ppm [3, 8] did it give?
The mortality at 250 ppm was 50%.

How did the mortality at 500 ppm ([1]; 48 h) turn out when `CC1(C)C(C(=O)OC(C#N)c2ccc(F)c(Oc3ccccc3)c2)C12Cc1ccccc12` (centres unmarked) [Compound 20] was run?
Its mortality at 500 ppm is 100%.

And the mortality at 50 ppm [3, 8]?
Its mortality at 50 ppm is 100%.

And the mortality at 50 ppm [3, 9]?
Its mortality at 50 ppm is 100%.

What about the mortality at 50 ppm [3, 10] of the same molecule?
Its mortality at 50 ppm is 90%.

With `CC1(C)C(C(=O)OC(C#N)c2cccc(Oc3ccccc3)c2)C12C=Cc1ccccc12` (centres unmarked) [drawing 64, reference compound] as the molecule, how does the “KT50 (50% knockdown time), House fly” value [5] read?
Its value is > 600 s.

What about the “KT50 (50% knockdown time), Northern house mosquito” value [6] of the same molecule?
Its value is 600 s.

What about the “mortality, Northern house mosquito” value [6] of the same molecule?
The value was 50%.

What does the source list for `CC1(C)C(C(=O)OC(C#N)c2cccc(Oc3ccccc3)c2)C12Cc1c(F)c(F)c(F)c(F)c1C2` (centres unmarked) [Compound 1]?
mortality at 500 ppm [1, 7]: 100%; LD50 (median lethal dose) [2]: 0.0052 μg/female; mortality at 50 ppm [3, 8]: 100%; mortality at 50 ppm [3, 9]: 100%; mortality at 50 ppm [3, 10]: 86%; LC50 [4, 11]: 3.5 µg/mL (≈ 7.06 µM)

For `CC1(C)C(C(=O)OC(C#N)c2cccc(Oc3ccccc3)c2)C12Cc1ccc(F)cc1C2` (centres unmarked) [Compound 4], which mortality at 500 ppm [1, 7] is on record?
Its mortality at 500 ppm is 100%.

And the “LD50 (median lethal dose)” value [2]?
Its value is 0.0042 μg/female.

What about the LC50 [4, 11] of the same molecule?
Its LC50 is 1 µg/mL (≈ 2.26 µM).

With `C#CC(OC(=O)C1C(C)(C)C12Cc1ccccc1C2)C(C)=CCC` (centres unmarked) [Compound 14] as the molecule, how does the mortality at 500 ppm [1, 7] read?
The mortality at 500 ppm was 100%.

For `CC(C)=CC1C(C(=O)OC(C#N)c2cccc(Oc3ccccc3)c2)C1(C)C` (centres unmarked) [reference compound], which “LD50 (median lethal dose)” value [2] is on record?
The value was 0.079 μg/female.

How did the mortality at 500 ppm [1, 7] turn out when `CC1(C)C(C(=O)OC(C#N)c2cccc(Oc3ccc(Br)cc3)c2)C12Cc1ccccc1C2` (centres unmarked) [Compound 16] was run?
The mortality at 500 ppm was 100%.

What about the mortality at 50 ppm [3, 8] of the same molecule?
Its mortality at 50 ppm is 100%.

What about the mortality at 50 ppm [3, 9] of the same molecule?
Its mortality at 50 ppm is 100%.

What about the mortality at 50 ppm [3, 10] of the same molecule?
Its mortality at 50 ppm is 97%.
